{"source": "paper PMC6053381", "about": "“Novel 2-phenyloxypyrimidine derivative induces apoptosis and autophagy via inhibiting PI3K pathway and activating MAPK/ERK signaling in hepatocellular carcinoma cells” (Scientific Reports, 2018)", "key": {"Bel7404 cells [1]": {"tested_on": "Bel7404 cells", "test": "Apoptosis by Annexin V/PI flow cytometry", "type": "cell-based", "conditions": "24 h, Annexin V/PI double staining", "procedure": "(§1) We next explored the apoptosis-inducing ability of E5 in HCC cells. Bel7404 and HepG2 cells were treated with E5 for 24 h and stained with the fluorescent DNA-binding dye, Hoechst 33258. The cells were brightly stained in a dose-dependent manner, showing a typical morphological sign of apoptosis (Fig. 5A). […] Furthermore, E5 induced a specific cleavage of PARP and a decrease of pro-form of caspase-3, caspase-7 and caspase-9 (Fig. 5C). […] In addition, the pan-caspase inhibitor Z-VAD-FMK partially rescued the viability of HCC cells reduced by E5, implying that E5 might also induce non-apoptotic form of cell death (Fig. 5D).\n(§2) Cells were incubated with E5 for 24 h, after which cells were washed, stained and subjected to flow cytometry analysis. The cell cycle was analyzed by staining with propidium iodide (PI), and the extent of cell death/apoptosis was evaluated by double staining with annexin V-FITC and PI. The fluorescence was measured with a FACScan flow cytometer (Becton Dickinson, USA)."}, "HepG2 cells [2]": {"tested_on": "HepG2 cells", "test": "Apoptosis by Annexin V/PI flow cytometry", "type": "cell-based", "conditions": "24 h, Annexin V/PI double staining", "procedure": "as §1, §2"}, "CSF1R": {"biological_target": "CSF1R (Homo sapiens, UniProt P07333)", "sequence (P07333 20-972)": "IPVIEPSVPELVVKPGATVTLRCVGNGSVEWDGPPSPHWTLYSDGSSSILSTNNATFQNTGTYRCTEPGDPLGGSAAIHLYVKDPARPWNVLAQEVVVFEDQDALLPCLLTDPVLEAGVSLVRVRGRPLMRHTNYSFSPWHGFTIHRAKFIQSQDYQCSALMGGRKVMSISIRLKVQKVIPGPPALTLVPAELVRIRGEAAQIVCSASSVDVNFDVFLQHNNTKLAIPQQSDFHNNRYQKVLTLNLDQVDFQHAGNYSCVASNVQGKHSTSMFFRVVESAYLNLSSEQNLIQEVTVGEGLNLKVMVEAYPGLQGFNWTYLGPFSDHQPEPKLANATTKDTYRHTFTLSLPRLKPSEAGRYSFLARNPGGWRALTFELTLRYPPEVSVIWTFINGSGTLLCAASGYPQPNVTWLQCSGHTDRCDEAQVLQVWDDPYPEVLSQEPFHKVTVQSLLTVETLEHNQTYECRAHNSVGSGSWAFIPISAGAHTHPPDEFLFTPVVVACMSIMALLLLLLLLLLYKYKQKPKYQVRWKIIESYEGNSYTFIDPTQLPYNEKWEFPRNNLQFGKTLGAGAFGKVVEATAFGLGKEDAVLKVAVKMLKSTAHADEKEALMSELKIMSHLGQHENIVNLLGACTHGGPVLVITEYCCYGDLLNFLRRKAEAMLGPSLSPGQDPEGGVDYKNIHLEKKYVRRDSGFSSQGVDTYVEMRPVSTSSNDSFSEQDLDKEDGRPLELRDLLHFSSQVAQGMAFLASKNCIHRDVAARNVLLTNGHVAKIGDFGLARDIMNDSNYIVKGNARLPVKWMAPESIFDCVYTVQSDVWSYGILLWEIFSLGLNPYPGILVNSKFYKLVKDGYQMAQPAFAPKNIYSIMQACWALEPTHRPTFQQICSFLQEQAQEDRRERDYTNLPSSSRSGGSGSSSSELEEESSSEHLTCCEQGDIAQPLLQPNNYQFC", "test": "Kinase profiling (Kinase-Glo Plus or ADP-Glo)", "type": "biochemical", "conditions": "averages of two separate experiments", "procedure": "(§3) To better characterize kinase inhibition, the ability of E5 to inhibit a panel of purified kinases was assessed.\n(§4) PDGFR kinase activity was measured using Caliper microfluidic mobility shift technology. Briefly, 2 μL compound solution (25 μM) in 25% DMSO per well were added into the 384 well microtiter plates. Then, 10 μL per well of enzyme solution (100 mM HEPES, 10 mM MgCl2, Brij35 (30%) 100 μL, 1 mM DTT, 20 ng enzyme) was added. After a brief centrifugation at 1,000 rpm, the kinase reactions were started by addition of 38 μL per well of peptide/ATP-solution (40 μM ATP, 6.5 μM peptide 5′-FAM-KKKKEEIYFFF-NH2, Tris-HCl buffer, pH 7.0) incubated at 30 °C for 60 min and stopped by the addition of 20 μL 35 mM EDTA per well. The electrophoretic separation of the phosphorylated and non-phosphorylated peptides was then carried out on LabChip EZ Reader II (Caliper Life Sciences). All other kinase reactions were carried out as previously reported using the Kinase-Glo Plus or ADP-Glo assay. Kinase inhibition rates were calculated per manufacturer’s instructions."}, "c-KIT": {"biological_target": "c-KIT (Homo sapiens, UniProt P10721)", "test": "Kinase profiling (Kinase-Glo Plus or ADP-Glo)", "type": "biochemical", "conditions": "averages of two separate experiments", "procedure": "as §3, §4"}, "LCK": {"biological_target": "LCK (Homo sapiens, UniProt P06239)", "test": "Kinase profiling (Kinase-Glo Plus or ADP-Glo)", "type": "biochemical", "conditions": "averages of two separate experiments", "procedure": "as §3, §4"}, "B-raf": {"biological_target": "B-raf (Homo sapiens, UniProt P15056)", "sequence (P15056 whole entry, species assumed)": "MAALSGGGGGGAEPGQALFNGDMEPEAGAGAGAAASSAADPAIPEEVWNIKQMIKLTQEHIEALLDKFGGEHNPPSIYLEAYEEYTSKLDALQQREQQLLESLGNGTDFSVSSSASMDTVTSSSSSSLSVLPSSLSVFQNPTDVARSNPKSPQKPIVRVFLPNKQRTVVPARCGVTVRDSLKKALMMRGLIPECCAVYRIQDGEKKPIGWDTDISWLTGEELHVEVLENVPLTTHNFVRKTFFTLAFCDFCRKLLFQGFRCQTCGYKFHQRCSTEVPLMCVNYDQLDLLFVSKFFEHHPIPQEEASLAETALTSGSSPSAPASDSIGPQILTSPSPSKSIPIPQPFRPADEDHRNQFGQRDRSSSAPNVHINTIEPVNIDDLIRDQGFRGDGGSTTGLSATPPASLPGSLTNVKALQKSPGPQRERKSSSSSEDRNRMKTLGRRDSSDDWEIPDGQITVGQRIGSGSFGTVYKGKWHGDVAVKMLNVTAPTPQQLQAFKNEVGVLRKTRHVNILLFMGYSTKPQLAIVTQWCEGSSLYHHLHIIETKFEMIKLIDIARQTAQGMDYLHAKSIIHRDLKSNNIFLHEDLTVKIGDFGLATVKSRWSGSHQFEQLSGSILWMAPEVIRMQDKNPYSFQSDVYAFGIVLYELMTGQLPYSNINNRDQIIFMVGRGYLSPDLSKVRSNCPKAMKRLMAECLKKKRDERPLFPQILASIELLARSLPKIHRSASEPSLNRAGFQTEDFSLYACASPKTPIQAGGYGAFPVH", "test": "Kinase profiling (Kinase-Glo Plus or ADP-Glo)", "type": "biochemical", "conditions": "averages of two separate experiments", "procedure": "as §3, §4"}, "EGFR": {"biological_target": "EGFR (Homo sapiens, UniProt P00533)", "sequence (P00533 25-1210, species assumed)": "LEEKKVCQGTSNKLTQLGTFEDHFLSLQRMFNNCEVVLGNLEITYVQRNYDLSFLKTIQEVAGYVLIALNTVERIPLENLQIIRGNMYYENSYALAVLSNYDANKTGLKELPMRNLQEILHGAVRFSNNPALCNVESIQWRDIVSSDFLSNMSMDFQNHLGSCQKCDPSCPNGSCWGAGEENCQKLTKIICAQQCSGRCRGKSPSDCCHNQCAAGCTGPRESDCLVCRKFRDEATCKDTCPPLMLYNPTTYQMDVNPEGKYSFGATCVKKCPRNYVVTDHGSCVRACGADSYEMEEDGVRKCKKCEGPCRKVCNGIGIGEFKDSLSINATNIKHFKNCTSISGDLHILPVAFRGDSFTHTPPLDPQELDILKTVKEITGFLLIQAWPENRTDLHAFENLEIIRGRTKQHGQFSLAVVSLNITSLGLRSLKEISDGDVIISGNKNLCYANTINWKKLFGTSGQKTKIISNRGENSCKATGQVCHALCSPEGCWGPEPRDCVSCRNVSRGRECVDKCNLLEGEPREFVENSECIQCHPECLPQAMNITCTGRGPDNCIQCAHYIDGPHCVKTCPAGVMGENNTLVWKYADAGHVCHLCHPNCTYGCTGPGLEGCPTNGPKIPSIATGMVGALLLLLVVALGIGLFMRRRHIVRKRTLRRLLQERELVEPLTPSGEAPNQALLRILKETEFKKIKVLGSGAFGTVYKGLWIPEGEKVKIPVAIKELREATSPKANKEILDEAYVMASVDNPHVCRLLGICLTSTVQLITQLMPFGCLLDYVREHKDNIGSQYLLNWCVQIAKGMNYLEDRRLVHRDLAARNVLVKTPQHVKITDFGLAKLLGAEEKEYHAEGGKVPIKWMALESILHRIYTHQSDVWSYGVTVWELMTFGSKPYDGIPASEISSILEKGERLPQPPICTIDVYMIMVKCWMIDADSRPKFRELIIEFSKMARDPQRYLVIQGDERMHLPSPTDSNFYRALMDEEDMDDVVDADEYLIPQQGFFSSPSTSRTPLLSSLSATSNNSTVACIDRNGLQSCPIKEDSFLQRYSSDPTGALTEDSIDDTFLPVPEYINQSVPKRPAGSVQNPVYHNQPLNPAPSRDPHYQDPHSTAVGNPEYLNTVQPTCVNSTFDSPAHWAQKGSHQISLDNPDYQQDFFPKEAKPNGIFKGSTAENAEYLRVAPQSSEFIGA", "test": "Kinase profiling (Kinase-Glo Plus or ADP-Glo)", "type": "biochemical", "conditions": "averages of two separate experiments", "procedure": "as §3, §4"}, "FLT3": {"biological_target": "FLT3 (Homo sapiens, UniProt P36888)", "sequence (P36888 27-993, species assumed)": "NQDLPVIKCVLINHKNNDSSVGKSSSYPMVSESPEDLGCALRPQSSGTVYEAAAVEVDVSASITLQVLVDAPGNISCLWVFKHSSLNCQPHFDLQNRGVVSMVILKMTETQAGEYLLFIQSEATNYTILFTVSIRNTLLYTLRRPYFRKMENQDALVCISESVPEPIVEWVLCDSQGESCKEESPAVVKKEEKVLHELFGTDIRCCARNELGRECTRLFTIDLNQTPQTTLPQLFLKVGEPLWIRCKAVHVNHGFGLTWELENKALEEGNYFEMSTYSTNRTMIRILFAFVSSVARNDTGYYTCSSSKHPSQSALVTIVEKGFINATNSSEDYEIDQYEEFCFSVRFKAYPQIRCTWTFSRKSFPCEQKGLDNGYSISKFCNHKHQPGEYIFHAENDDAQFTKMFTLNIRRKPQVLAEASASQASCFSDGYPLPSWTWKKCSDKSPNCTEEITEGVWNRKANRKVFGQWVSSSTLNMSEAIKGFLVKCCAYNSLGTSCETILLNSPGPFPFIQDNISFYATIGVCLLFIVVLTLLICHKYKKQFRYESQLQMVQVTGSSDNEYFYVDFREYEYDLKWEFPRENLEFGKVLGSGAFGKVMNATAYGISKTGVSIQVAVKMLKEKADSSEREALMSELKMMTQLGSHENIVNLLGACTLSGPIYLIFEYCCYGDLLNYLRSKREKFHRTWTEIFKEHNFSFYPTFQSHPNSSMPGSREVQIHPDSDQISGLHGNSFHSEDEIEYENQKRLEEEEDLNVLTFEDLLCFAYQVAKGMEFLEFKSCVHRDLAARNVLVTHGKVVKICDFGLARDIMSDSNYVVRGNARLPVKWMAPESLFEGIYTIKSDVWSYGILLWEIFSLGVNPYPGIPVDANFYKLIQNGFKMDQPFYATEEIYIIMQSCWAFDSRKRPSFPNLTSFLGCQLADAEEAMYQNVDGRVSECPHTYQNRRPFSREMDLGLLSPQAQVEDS", "test": "Kinase profiling (Kinase-Glo Plus or ADP-Glo)", "type": "biochemical", "conditions": "averages of two separate experiments", "procedure": "as §3, §4"}, "FGFR1": {"biological_target": "FGFR1 (Homo sapiens, UniProt P11362)", "test": "Kinase profiling (Kinase-Glo Plus or ADP-Glo)", "type": "biochemical", "conditions": "averages of two separate experiments", "procedure": "as §3, §4"}, "BLK": {"biological_target": "BLK (Homo sapiens, UniProt P51451)", "sequence (P51451 whole entry, species assumed)": "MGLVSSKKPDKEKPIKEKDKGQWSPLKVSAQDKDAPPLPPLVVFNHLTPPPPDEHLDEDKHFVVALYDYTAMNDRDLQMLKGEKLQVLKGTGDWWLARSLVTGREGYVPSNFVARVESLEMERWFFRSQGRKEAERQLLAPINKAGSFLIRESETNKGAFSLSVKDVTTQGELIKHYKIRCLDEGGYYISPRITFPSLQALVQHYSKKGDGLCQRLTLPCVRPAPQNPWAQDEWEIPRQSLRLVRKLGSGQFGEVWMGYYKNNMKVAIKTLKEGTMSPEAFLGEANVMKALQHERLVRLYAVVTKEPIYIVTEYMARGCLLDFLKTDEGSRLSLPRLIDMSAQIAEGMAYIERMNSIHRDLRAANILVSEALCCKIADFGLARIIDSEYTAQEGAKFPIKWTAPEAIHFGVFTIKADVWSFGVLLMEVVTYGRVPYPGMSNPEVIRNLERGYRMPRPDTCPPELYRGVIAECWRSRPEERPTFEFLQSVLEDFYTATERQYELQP", "test": "Kinase profiling (Kinase-Glo Plus or ADP-Glo)", "type": "biochemical", "conditions": "averages of two separate experiments", "procedure": "as §3, §4"}, "FGFR2": {"biological_target": "FGFR2 (Homo sapiens, UniProt P21802)", "test": "Kinase profiling (Kinase-Glo Plus or ADP-Glo)", "type": "biochemical", "conditions": "averages of two separate experiments", "procedure": "as §3, §4"}, "ABL2": {"biological_target": "ABL2 (Homo sapiens, UniProt P42684)", "test": "Kinase profiling (Kinase-Glo Plus or ADP-Glo)", "type": "biochemical", "conditions": "averages of two separate experiments", "procedure": "as §3, §4"}, "Raf-1": {"biological_target": "Raf-1 (Homo sapiens, UniProt P04049)", "sequence (P04049 whole entry, species assumed)": "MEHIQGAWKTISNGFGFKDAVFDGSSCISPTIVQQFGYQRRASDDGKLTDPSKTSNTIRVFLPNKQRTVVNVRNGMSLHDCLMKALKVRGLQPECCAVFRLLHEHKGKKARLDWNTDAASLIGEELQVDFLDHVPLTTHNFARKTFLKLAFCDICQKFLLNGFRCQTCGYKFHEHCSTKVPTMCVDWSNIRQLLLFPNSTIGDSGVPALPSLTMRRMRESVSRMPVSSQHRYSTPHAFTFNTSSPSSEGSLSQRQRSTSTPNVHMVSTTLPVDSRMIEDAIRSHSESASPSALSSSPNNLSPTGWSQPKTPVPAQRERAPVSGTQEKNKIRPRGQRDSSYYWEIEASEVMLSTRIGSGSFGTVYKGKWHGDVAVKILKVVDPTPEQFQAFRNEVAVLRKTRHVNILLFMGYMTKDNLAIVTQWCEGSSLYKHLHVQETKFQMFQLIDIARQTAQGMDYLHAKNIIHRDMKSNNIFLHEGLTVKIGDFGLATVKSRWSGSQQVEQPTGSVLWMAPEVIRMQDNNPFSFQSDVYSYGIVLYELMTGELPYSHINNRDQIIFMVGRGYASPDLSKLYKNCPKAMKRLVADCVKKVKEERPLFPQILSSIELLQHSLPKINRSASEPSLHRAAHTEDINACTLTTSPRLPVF", "test": "Kinase profiling (Kinase-Glo Plus or ADP-Glo)", "type": "biochemical", "conditions": "averages of two separate experiments", "procedure": "as §3, §4"}, "ABL1": {"biological_target": "ABL1 (Homo sapiens, UniProt P00519)", "test": "Kinase profiling (Kinase-Glo Plus or ADP-Glo)", "type": "biochemical", "conditions": "averages of two separate experiments", "procedure": "as §3, §4"}, "Bel7404 cells [3]": {"tested_on": "Bel7404 cells", "test": "Autophagy: LC3-I to LC3-II conversion, Western blot", "type": "cell-based", "description": "(§5) To investigate whether E5 triggers autophagic cell death in HCC cells, several characteristic events of autophagy were examined using different techniques. First, E5 stimulated LC3 puncta formation in HCC cells transfected with adenovirus expressing GFP-LC3 fusion protein as detected by fluorescence microscopy (Fig. 6A). […] Third, the effects of E5 on autophagy flux was examined by co-treatment of E5 with chloroquine (CQ), an inhibitor that prevents the formation of autolysosomes by inhibiting autophagosome-lysosome fusion and […] degradation. […] Fourth, E5 increased the expression of Atg5, which is essential for the elongation of autophagosomes (Fig. 6B), and the cell viability by E5 treatment was increased in HCC cells by knockdown of Atg5 (Fig. 6E). Finally, treatment with 3-methyladenine (3-MA), an autophagy inhibitor, partially reversed E5-induced cell death in HCC cells (Fig. 6F).\n(§6) After treatment with E5 for 24 h, cells were lysed in RIPA cell lysis buffer. Equal amount of protein (30–40 μg) was separated on a 12% or 15% SDS-PAGE and transferred electrophoretically onto a 0.45 μm PVDF membrane. Then, the membrane was blocked for 2 h at room temperature with 5% non-fat dried milk in TBS buffer and incubated with appropriate antibodies at 1:1000 (overnight, 4 °C). […]"}, "HepG2 cells [4]": {"tested_on": "HepG2 cells", "test": "Autophagy: LC3-I to LC3-II conversion, Western blot", "type": "cell-based", "description": "as §5, §6"}}, "note": "pIC50: −log10 of the molar value."}
{"smiles": "Cc1ccc(NC(=O)c2ccc(CN3CCN(C)CC3)cc2)cc1Oc1nccc(-c2cc3ccccc3o2)n1", "note": "[E5, N-(3-((4-(benzofuran-2-yl)pyrimidin-2-yl)oxy)-4-methylphenyl)-4-((4-methylpiperazin-1-yl)methyl)benzamide]", "values": [{"measurement": "Apoptosis induction", "setting": "Bel7404 cells [1]", "value": "induced apoptosis in a dose-dependent manner"}, {"measurement": "Apoptosis induction", "setting": "HepG2 cells [2]", "value": "induced apoptosis in a dose-dependent manner"}, {"measurement": "pIC50", "setting": "CSF1R", "value": 5.95}, {"measurement": "IC50 CSF1R", "setting": "CSF1R", "value": "moderate inhibitory activity"}, {"measurement": "pIC50", "setting": "c-KIT", "value": 6.29}, {"measurement": "pIC50", "setting": "LCK", "value": "< 4.60"}, {"measurement": "pIC50", "setting": "B-raf", "value": "< 4.60"}, {"measurement": "pIC50", "setting": "EGFR", "value": "< 4.60"}, {"measurement": "pIC50", "setting": "FLT3", "value": "< 4.60"}, {"measurement": "IC50 FLT3", "setting": "FLT3", "value": "no inhibition"}, {"measurement": "pIC50", "setting": "FGFR1", "value": "< 4.60"}, {"measurement": "pIC50", "setting": "BLK", "value": "< 4.60"}, {"measurement": "pIC50", "setting": "FGFR2", "value": "< 4.60"}, {"measurement": "pIC50", "setting": "ABL2", "value": 5.36}, {"measurement": "pIC50", "setting": "Raf-1", "value": "< 4.60"}, {"measurement": "pIC50", "setting": "ABL1", "value": 5.03}, {"measurement": "Conversion of LC3-I to LC3-II", "setting": "Bel7404 cells [3]", "value": "induced the conversion of LC3-I to LC3-II in a dose- and time-dependent manner"}, {"measurement": "Conversion of LC3-I to LC3-II", "setting": "HepG2 cells [4]", "value": "induced the conversion of LC3-I to LC3-II in a dose- and time-dependent manner"}]}
